We go through three compounds from patent US10118911B2, “P-toluenesulfonate for MEK kinase inhibitor, and crystal form thereof and preparation method therefor” (Jiangsu Hengrui Medicine Co., Ltd., priority 2015, dated 2018).

A short description of series [1]: Stability of crystal form I spread flat in the air under lighting, heating and high humidity, purity detected by HPLC. In kind it is physicochemical. Particulars: for stability (in words): lighting, high temperature, high humidity, p-toluenesulfonate. As for the experimental part: The product sample of crystal form I prepared in Example 2 was spread flat in the air, to test its stability under conditions of lighting, heating (40° C., 60° C.), and high humidity (RH 75%, RH 90%). Samplings were carried out on Day 5 and Day 10.

Series [2] is described as follows: Special stability study of crystal form I (grinding, heating, pressing). In kind it is physicochemical. From the text: Crystal form I of the compound of formula (I) prepared according to the method of Example 2 was ground, heated and pressed.
Another series relates to MEK kinase. The following applies: from PCT/CN2014/085976 of the applicant; cited from earlier work.
Series [3] can be described thus: Solubility compared to the free base. It is filed as physicochemical.
The nature of series [4]: Bioavailability compared to the free base. In kind it is in vivo.
The mark [5] stands for this setting: after grinding treatment for 10 min in a mortar under nitrogen atmosphere.
The mark [6] stands for this setting: after heating treatment for 3 h at 80° C.
The mark [7] stands for this setting: after pressing treatment (pressed to a slice).

Take `Cc1ccc(Oc2cc(=O)n(C)c(Nc3ccc(I)cc3F)c2C(N)=O)cn1.Cc1ccc(S(=O)(=O)O)cc1` [2-((2-fluoro-4-iodophenyl)amino)-1-methyl-4-((6-methylpyridin-3-yl)oxy)-6-oxo-1,6-di hydropyridine-3-carboxamide p-toluenesulfonate]: the “purity detected by HPLC” value is reported as 98.86% in series [1] (40° C., day 0); 98.85% in series [1] (40° C., day 5); 98.88% in series [1] (40° C., day 10); 98.86% in series [1] (60° C., day 0); 98.89% in series [1] (60° C., day 5); 98.88% in series [1] (60° C., day 10). Further, the “purity detected by HPLC” value was determined as 98.86% in series [1] (4500 Lux, day 0); 99.08% in series [1] (4500 Lux, day 5); 99.17% in series [1] (4500 Lux, day 10); 98.86% in series [1] (RH75%, day 0); 98.88% in series [1] (RH75%, day 5); 98.88% in series [1] (RH75%, day 10). For the same compound, the “purity detected by HPLC” value in series [1] (RH90%, day 0) is listed as 98.86%; in series [1] (RH90%, day 5) it was 98.86%; in series [1] (RH90%, day 10), 98.88%. For the same compound, the “stability (in words)” value is given as “good stability” in series [1] (listed as crystal form I) and “stable” in series [1]. Also, the Crystal form entry in series [2] (setting [5]), in series [2] (setting [6]) and in series [2] (setting [7]) was “form I” in each case. The DSC peak in series [2] (setting [5]) was determined as 237.66 °C; in series [2] (setting [6]), 237.45 °C; in series [2] (setting [7]) it was 237.75 °C. The “stability of the crystal form (in words)” value in series [2] (grinding, pressure and heating) was “stable”.

For `Cc1ccc(Oc2cc(=O)n(C)c(Nc3ccc(I)cc3F)c2C(N)=O)cn1` [Example 1, 2-((2-fluoro-4-iodophenyl)amino)-1-methyl-4-((6-methylpyridin-3-yl)oxy)-6-oxo-1,6-dihydropyridine-3-carboxamide], the “inhibitory activity against MEK kinase” value with MEK kinase was “strong inhibitory activity”.

Regarding `Cc1ccc(Oc2cc(=O)n(C)c(Nc3ccc(I)cc3F)c2C(N)=O)cn1.Cc1ccc(S(=O)(=O)O)cc1` [compound of formula (I), 2-((2-fluoro-4-iodophenyl)amino)-1-methyl-4-((6-methylpyridin-3-yl)oxy)-6-oxo-1,6-di hydropyridine-3-carboxamide p-toluenesulfonate], the solubility entry in series [3] is listed as “greatly improved”. In series [4], the bioavailability result is “greatly improved”.
